Publication PMC12254266, “Multicolored sequential resonance energy transfer for detection of simultaneous ligand binding at G protein-coupled receptors” (Nature Communications, 2025)
Where “and” joins values, the source holds several entries; their conditions need not be identical. Equal entries are not always repeated.

Molecular target: FFA1 (Homo sapiens, UniProt O14842)
Test: Ca2+ mobilisation (Fura2) in Flp-In T-REx 293 cells expressing Nluc-FFA1, FFA1-Nluc or untagged FFA1
Assay type: cell-based
Design: expressed in transfected cells
Conditions: for pEC50: Ca2+ data, mean±SEM; for pEC50 / EMax: NR = No response; for Ca2+ Response as a % of T360 Response: single technical replicates; for EMax: percentage of response to 10 μM T360
Experimental: Nluc-FFA1, FFA1-Nluc or untagged FFA1 Flp-In T-REx 293 cells were plated at 50,000 cells per well in poly-D-lysine coated black clear bottom 96-well plates. Cells were then cultured for 24 h until reaching confluency before culture medium was replaced with medium containing 100 ng/mL of doxycycline to induce receptor expression. Cells were cultured for a further 24 h before the assay. On the day of the assay culture medium was removed and replaced with medium containing 3 μM Fura2-AM Ca^2+ dye. […] Fura2 fluorescent emission at 520 nm following excitation with each of 340 and 380 nm was measured in regular intervals both before and after adding test compounds for a total of 90 s per well. Calcium responses were determined by taking the peak 340/380 ratio after first subtracting the ratios obtained prior to addition of test compound.

FFA1, sequence (O14842 whole entry): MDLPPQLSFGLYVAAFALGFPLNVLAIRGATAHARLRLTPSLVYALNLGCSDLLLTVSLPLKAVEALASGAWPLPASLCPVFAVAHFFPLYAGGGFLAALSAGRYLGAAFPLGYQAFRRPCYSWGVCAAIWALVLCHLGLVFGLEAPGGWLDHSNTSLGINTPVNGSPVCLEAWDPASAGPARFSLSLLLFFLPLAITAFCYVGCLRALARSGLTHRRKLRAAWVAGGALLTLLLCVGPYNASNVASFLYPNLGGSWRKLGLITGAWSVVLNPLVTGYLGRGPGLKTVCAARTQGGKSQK

pEC50	EMax [%]	Compound	Ca2+ Response as a % of T360 Response (log[Ligand] -5)	Ca2+ Response as a % of T360 Response (log[Ligand] -5.5)	Ca2+ Response as a % of T360 Response (log[Ligand] -6)	Ca2+ Response as a % of T360 Response (log[Ligand] -6.5)	Ca2+ Response as a % of T360 Response (log[Ligand] -7)	Ca2+ Response as a % of T360 Response (log[Ligand] -8)	Ca2+ Response as a % of T360 Response (log[Ligand] -9)
5.29±0.04	–	COc1ccc(C(=O)NCC(C)(C)CNc2ccc([N+](=O)[O-])c3nonc23)c(N2CCC(COc3cccc(C(CC(=O)O)C4CC4)c3)CC2)c1.O=C(O)C(F)(F)F (stereo not drawn) [TUG-2489]	102.5277% and 96.3666% and 102.3411% and 80.8186% and 76.8959%	75.8584% and 55.2490% and 64.4948% and 77.9746% and 61.7732% and 62.6510%	11.4043% and 15.1652% and 19.0434% and 4.1691% and 0.1177% and 9.7037%	0.7033% and -0.7918% and -3.1732% and -6.5594% and 0.0827% and 3.4744%	-3.1258% and 4.2395% and 1.6831% and -3.2821% and -0.2376% and 1.2224%	-0.4995% and 5.1700% and -1.2657% and 6.6097% and 0.3774% and -0.3774%	0.4589% and 3.5934% and -2.5884% and -5.3677% and 0.8677% and 2.5453%
5.38±0.09	133±5	COc1ccc(C(=O)N2CCN(CCNC(=O)OC(C)(C)C)CC2)c(N2CCC(COc3cccc(C(CC(=O)O)C4CC4)c3)CC2)c1.Cl (stereo not drawn) [TUG-2458]	–	–	–	–	–	–	–
5.95±0.16	–	COc1ccc(C(=O)N(CC(C)(C)CNc2ccc([N+](=O)[O-])c3nonc23)c2ccccc2)c(N2CCC(COc3cccc(C(CC(=O)O)C4CC4)c3)CC2)c1.O=C(O)C(F)(F)F (stereo not drawn) [TUG-2490]	–	93.1455% and 77.9850% and 75.8107% and 96.4232% and 72.2793% and 68.6021%	53.6775% and 46.6859% and 50.0991% and 72.4727% and 32.6717% and 50.6607%	16.7030% and 15.2768% and 30.6910% and 52.9860% and 26.5604% and 17.0828%	-0.5150% and -0.6020% and 9.0880% and 4.0961% and 1.0500% and 13.2109%	-0.3253% and 0.1971% and 2.2527% and 3.6975% and -0.7574% and 0.7574%	3.6767% and 1.4233% and -0.8955% and -4.2309% and 0.8739% and -0.0879%

Second part, the molecule before the results:

Compound	pEC50	EMax [%]	Ca2+ Response as a % of T360 Response (log[Ligand] -5)	Ca2+ Response as a % of T360 Response (log[Ligand] -5.5)	Ca2+ Response as a % of T360 Response (log[Ligand] -6)	Ca2+ Response as a % of T360 Response (log[Ligand] -6.5)	Ca2+ Response as a % of T360 Response (log[Ligand] -7)	Ca2+ Response as a % of T360 Response (log[Ligand] -8)	Ca2+ Response as a % of T360 Response (log[Ligand] -9)
COc1ccc(C(=O)N2CCC(CCNC(=O)OC(C)(C)C)CC2)c(N2CCC(COc3cccc(C(CC(=O)O)C4CC4)c3)CC2)c1.O=C(O)C(F)(F)F (stereo not drawn) [TUG-2451]	6.20±0.14	112±10	–	–	–	–	–	–	–
COc1ccc(C(=O)N(CCNC(=O)OC(C)(C)C)c2ccccc2)c(N2CCC(COc3cccc(C(CC(=O)O)C4CC4)c3)CC2)c1.Cl (stereo not drawn) [TUG-2455]	6.63±0.10	103±12	–	–	–	–	–	–	–
